Assay results: patent US9328324B2, “System, method and devices for tissue-based diagnosis” (The Regents of the University of California, priority 2009, dated 2016)

assay: Preservation of bioactivity of solubilized tissue constituents under ultrasonic energy exposure; details: 1% w/v in LPM

Preservation of bioactivity of solubilized proteins and nucleic acids, complete preservation:
CCCCCCCCCCCCOCCOCCOCCOCCO [Brij 30, polyethylene glycol dodecyl ether]
CCCCCCCCCC[N+](C)(C)CCCS(=O)(=O)[O-] [DPS, 3-(decyldimethylammonio) propane sulfonate]
CCCCCCCCCCCC(=O)N(C)CC(=O)O [NLS, N-lauroyl sarcosine]
